Series [1] deals with Histamine H3 receptor (Cavia porcellus) (UniProt Q9JI35). Description: Compound was evaluated for its inhibitory activity against Histamine H3 receptor of guinea pig brain membrane at a concentration of 1 ug/mL.
The target of a further series is Histamine H3 receptor (Cavia porcellus, UniProt Q9JI35). In words: (§1) Compound was evaluated for its binding affinity against Histamine H3 receptor of guinea pig brain membrane.
The target in series [2] is Histamine H3 receptor (Cavia porcellus) (UniProt Q9JI35). In words: Compound was evaluated for its binding affinity against Histamine H3 receptor of guinea pig brain membrane less then 50% inhibition when screened at 1 ug/mL.
For series [3] the target is unchanged. In words: Compound was evaluated for its binding affinity against Histamine H3 receptor of guinea pig brain membrane, less then 50% inhibition when screened at 1 ug/mL.
For another series, the system named is Cavia porcellus. Description: Effective dose was reported after intravenous administration to guinea pig. In kind it is functional.
A short description of series [4]: Compound at a dose 3 mg/kg was administered to monkey and was evaluated for half life after administration into monkey at 3 mg/kg. Conditions: cercopithecidae, in vivo. In kind it is ADME, organism-based.
A short description of series [5]: Pharmacokinetic parameter Cmax was measured after administration into monkey at 3 mg/kg. On the set-up: dose 3 mg/kg. In kind it is ADME, organism-based. Conditions: cercopithecidae, in vivo, read-out: AUC.
Series [6] in a line: Pharmacokinetic parameter area under curve (AUC) was measured after administration into rat at 10 mg/kg. The class given is ADME, organism-based. Details: dose 10 mg/kg. Conditions: in vivo.
Series [7] addresses T1, Alpha-2A adrenergic receptor (Homo sapiens) (UniProt P08913).
T1 sequence (whole entry): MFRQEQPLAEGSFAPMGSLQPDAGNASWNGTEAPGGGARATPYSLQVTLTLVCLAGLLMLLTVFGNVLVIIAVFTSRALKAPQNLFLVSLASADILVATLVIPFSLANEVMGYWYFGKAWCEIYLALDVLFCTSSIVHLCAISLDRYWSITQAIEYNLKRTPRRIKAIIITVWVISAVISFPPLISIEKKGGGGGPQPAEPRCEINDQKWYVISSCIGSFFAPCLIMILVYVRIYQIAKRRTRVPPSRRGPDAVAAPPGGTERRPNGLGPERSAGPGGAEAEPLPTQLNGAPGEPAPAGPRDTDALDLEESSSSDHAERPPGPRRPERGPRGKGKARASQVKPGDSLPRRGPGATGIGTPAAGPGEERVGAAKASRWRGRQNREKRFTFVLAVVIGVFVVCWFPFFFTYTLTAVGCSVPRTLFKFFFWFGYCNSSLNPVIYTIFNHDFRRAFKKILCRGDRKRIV
Description: Antagonistic activity towards Alpha-2A adrenergic receptor was calculated. In kind it is functional.

The nature of series [8]: Antagonistic activity towards dopamine uptake was calculated. The class given is functional.
The nature of series [9]: Pharmacokinetic parameter Cmax was measured after administration into rat at 10 mg/kg. In kind it is ADME, organism-based. Details: dose 10 mg/kg. Conditions: in vivo.
A further series deals with Cercopithecidae. In words: Pharmacokinetic parameter area under curve (AUC) was measured after administration into monkey at 3 mg/kg. The note with it: in vivo.
Series [10] in a line: Compound at a dose 10 mg/kg was administered to rat and was evaluated for bioavailability after administration into rat at 10 mg/kg. The note with it: in vivo, read-out: Bioavailabiility.
The target in series [11] is Histamine H3 receptor (Cavia porcellus) (UniProt Q9JI35). The series is described as §1. Conditions: concentration not given here.

Broadly, the inhibition is the change of the read-out against control, counted positive when it falls. A word on the Ki: it is a measure of affinity in units of concentration, obtained from inhibition or displacement. As a reminder, the ED50 is the midpoint of the dose-response relation. In general, half-life refers to the time in which the quantity being followed falls by half. The term AUC denotes concentration integrated over time.

The structures appear in SMILES notation. Some results are limits rather than exact numbers.

Chain of Histamine H3 receptor (Q9JI35 whole entry): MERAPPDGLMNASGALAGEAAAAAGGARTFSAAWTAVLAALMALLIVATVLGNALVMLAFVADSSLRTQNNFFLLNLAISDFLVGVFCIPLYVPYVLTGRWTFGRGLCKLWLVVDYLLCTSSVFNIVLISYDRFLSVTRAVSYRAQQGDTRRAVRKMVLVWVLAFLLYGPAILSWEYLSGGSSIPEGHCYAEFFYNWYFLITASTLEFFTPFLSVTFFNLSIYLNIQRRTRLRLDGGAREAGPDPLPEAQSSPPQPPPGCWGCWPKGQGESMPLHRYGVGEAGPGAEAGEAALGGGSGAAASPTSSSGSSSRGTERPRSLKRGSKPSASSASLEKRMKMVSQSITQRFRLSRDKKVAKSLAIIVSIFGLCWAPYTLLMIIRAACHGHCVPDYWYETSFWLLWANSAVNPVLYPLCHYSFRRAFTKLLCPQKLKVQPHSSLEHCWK
Chain of Histamine H3 receptor (Cavia porcellus) (Q9JI35 whole entry): as above

As to `O=C(Nc1ccc(Cc2c[nH]cn2)cc1)Nc1cc(Cl)cc(Cl)c1`, the inhibition in series [1] worked out at 36%.

In turn, `CN(Cc1ccc(Cc2cnc[nH]2)cc1)C(=O)N(C)c1cc(Cl)cc(Cl)c1` showed a Ki at Histamine H3 receptor of 370 nM. `O=C(NCc1cccc(Cc2c[nH]cn2)c1)Nc1cc(Cl)cc(Cl)c1` gave an inhibition in [1] of 33%. In turn, `O=C(NCc1ccccc1)NCc1ccc(Cc2c[nH]cn2)cc1` registered an inhibition in series [2] of less than 50%. Turning to `NC(=O)NCc1ccc(Cc2c[nH]cn2)cc1`, the inhibition in series [3] was less than 50%.

In turn, `N=C(NCc1ccc(Cl)cc1)c1ccc(Cc2c[nH]cn2)cc1` displayed an ED50 with Cavia porcellus of 0.3 mg/kg. The compound `O=C(NCc1ccc(Cc2c[nH]cn2)cc1)Nc1cc(Cl)cc(Cl)c1` showed a half-life in [4] of 4.4 h. Besides, the Cmax in series [5] and in series [9] was 1700 ng/mL in each case. Further, the AUC in [6] worked out at 18100 ng·h/mL; in the series on Cercopithecidae, 12600 ng·h/mL. Moreover, the Concentration in series [7] is 207 nM; in [8], 805 nM. Besides, the bioavailability in [10] was 44%.

Turning to `O=C(NCc1ccc(Cc2c[nH]cn2)cc1)NCc1cc(C(F)(F)F)cc(C(F)(F)F)c1`, the affinity on Histamine H3 receptor corresponds to a Ki of 90 nM. On Histamine H3 receptor, `O=C(Nc1ccc(Cl)cc1)OCc1ccc(Cc2c[nH]cn2)cc1` displayed an inhibition constant (Ki) of 25 nM. Consider `O=C(Nc1ccccc1)OCc1ccc(Cc2c[nH]cn2)cc1`, for which, on Histamine H3 receptor, the Ki worked out at 37 nM. On Histamine H3 receptor, `O=C(NCc1ccc(Cc2c[nH]cn2)cc1)Nc1cc(Cl)nc(Cl)c1` displayed a Ki of 3 nM. `O=C(NCc1ccc(Cc2c[nH]cn2)cc1)Nc1cnccn1` had an inhibition in series [11] of less than 50%. In turn, `O=C(NCc1ccc(Cc2c[nH]cn2)cc1)Nc1cccnc1` returned an inhibitory constant (Ki) on Histamine H3 receptor of 270 nM. For `O=C(NCCc1ccccc1Cl)NCc1ccc(Cc2c[nH]cn2)cc1`, affinity on Histamine H3 receptor was put at a Ki of 430 nM.

Values taken from ChEMBL document CHEMBL1135250, “Identification of a novel, orally bioavailable histamine H(3) receptor antagonist based on the 4-benzyl-(1H-imidazol-4-yl) template” (Bioorg Med Chem Lett, 2002).
